{"source": "patent US20230414783A1", "about": "“Biliary Delivery Methods, Compositions and Kits for Use Therein” (AMBYS MEDICINES, INC., priority 2020, published 2023)", "origin": "cited, not measured here", "test_system": "lysyl oxidase (LOX) family enzymes", "conditions": "subcutaneous injection or intravenous infusion; human subjects", "data": [{"compound": "Cc1cc(F)c(C(=O)Nc2cccc(-c3nncn3C(C)C)n2)cc1-n1cnc(C2CC2)c1", "note": "[selonsertib]", "values": [{"measurement": "clinical efficacy", "value": "did not demonstrate clinical efficacy"}]}]}
